The target of one test is T1, IL-17AA and IL-17RA (Homo sapiens, UniProt Q16552).
T1 construct: purchased Sino Biological 12047-H07B (IL-17AA); 10895-H02H (IL-17RA)
T1 sequence (Q16552 24-155): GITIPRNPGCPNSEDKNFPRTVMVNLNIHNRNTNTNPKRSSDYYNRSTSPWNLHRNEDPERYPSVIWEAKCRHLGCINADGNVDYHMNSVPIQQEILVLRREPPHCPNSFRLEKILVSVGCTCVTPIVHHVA
The test can be described thus: Competitive inhibition of human IL-17AA and IL-17RA binding (HTRF). As to conditions: recombinant IL-17AA (His-tag) and IL-17RA (hFc-tag); read-out: IC50 for Inhibiting IL-AA/IL-RA Binding. In outline: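 His-IL-17AA (1 nM) premixed 1 h with anti-His-Tb (0.4 nM), and Fc-IL-17RA (1 nM) with anti-IgG-d2 (1 μg/mL); these are pre-mix levels. Compounds, diluted from 10 μM, preincubated 2 h RT with IL-17AA mix; IL-17RA mix then added, 20 min. 665/615 ratio vs no-compound and no-IL-17AA controls; IC50 by 4-parameter fit.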
For orientation: TR-FRET usually uses a lanthanide donor and a delayed reading to cut background.

Test [1] concerns IL-17AF-induced IL-17 signaling pathway. The test can be described thus: Inhibition of IL-17AF-induced IL-17 signaling pathway. Particulars: Homo sapiens; IL-17AF used instead of IL-17AA; read-out: IC50 for Inhibiting IL-AF Signaling. Format: cell-based. In outline:
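HEK293-derived HEK-Blue IL-17 cells (IL-17RA/RC, ACT1, NF-κB/AP-1-driven SEAP) preincubated 1 hour at 37° C with serially diluted compound from 10 μM, then stimulated with IL-17AF for 20 hours. SEAP read colorimetrically at 620 nm; IC50 from 4-parameter fit of % inhibition.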

Test [2] has as its system IL-17AA-induced IL-17 signaling pathway. In words: Inhibition of IL-17AA-induced IL-17 signaling pathway in HEK-Blue IL-17 reporter cells (SEAP). In kind it is cell-based. Particulars: Homo sapiens; HEK-Blue IL-17 cells, IL-17AA 2.5 ng/mL, 20 hours; read-out: IC50 for Inhibiting IL-AA Signaling. A digest of the protocol:
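HEK-Blue IL-17 cells (HEK293 expressing human IL-17RA/RC, ACT1 and NF-κB/AP-1-driven SEAP), 10,000/well, pre-incubated with compound (serial dilution from 10 μM) for 1 h at 37 °C, then stimulated with IL-17AA at 2.5 ng/mL final for 20 h. SEAP in supernatant read with Quanti-Blue at 620 nm; IC50 by 4-parameter fit.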

From patent US20260083708A1, “IL-17 MODULATORS AND USES THEREOF” (NNOCARE PHARMA INC., priority 2024, published 2026) come the findings set out here.

Take `CCn1nccc1C(=O)N[C@H](C(=O)Nc1ccc([C@H](C)[C@@H](NC(=O)COC)c2ncnn2CC2CC2)cc1F)C1CCCCCC1` [Compound 42, N-((S)-1-cycloheptyl-2-((4-((1R,2S)-1-(1-(cyclopropylmethyl)-1H-1,2,4-triazol-5-yl)-1-(2-methoxyacetamido)propan-2-yl)-2-fluorophenyl)amino)-2-oxoethyl)-1-ethyl-1H-pyrazole-5-carboxamide]: the IC50 at IL-17AA and IL-17RA worked out at 4.9 nM; in test [1], 11 nM; in test [2] it was 5.1 nM.

For the molecule `[2H]C([2H])([2H])n1nccc1C(=O)N[C@H](C(=O)Nc1ccc([C@H](C)[C@@H](NC(=O)CC)c2ncn(CC3CC3)n2)cc1F)C(C1CC1)C1CC1` [Compound 43, N-((S)-1,1-dicyclopropyl-3-((4-((1R,2S)-1-(1-(cyclopropylmethyl)-1H-1,2,4-triazol-3-yl)-1-propionamidopropan-2-yl)-2-fluorophenyl)amino)-3-oxopropan-2-yl)-1-(methyl-d3)-1H-pyrazole-5-carboxamide], the IC50 stood at 9.4 nM at IL-17AA and IL-17RA; 27 nM in test [1]; 16 nM in test [2].

`CCC(=O)N[C@@H](c1ncnn1CC1CC1)[C@@H](C)c1ccc(NC(=O)[C@@H](NC(=O)c2ccnn2C(C)C)C(C2CC2)C2CC2)c(F)c1` [Compound 44, N-((S)-1,1-dicyclopropyl-3-((4-((1R,2S)-1-(1-(cyclopropylmethyl)-1H-1,2,4-triazol-5-yl)-1-propionamidopropan-2-yl)-2-fluorophenyl)amino)-3-oxopropan-2-yl)-1-isopropyl-1H-pyrazole-5-carboxamide]: the IC50 on IL-17AA and IL-17RA was found to be 1.9 nM; in test [1], 29 nM; in test [2] it was 4.4 nM.

Take `CCn1nccc1C(=O)N[C@H](C(=O)Nc1ccc([C@H](C)[C@@H](NC(=O)COC)c2ncnn2CC2CC2)cc1OC)C(C1CC1)C1CC1` [Compound 45, N-((S)-1,1-dicyclopropyl-3-((4-((1R,2S)-1-(1-(cyclopropylmethyl)-1H-1,2,4-triazol-5-yl)-1-(2-methoxyacetamido)propan-2-yl)-2-methoxyphenyl)amino)-3-oxopropan-2-yl)-1-ethyl-1H-pyrazole-5-carboxamide]: the IC50 was determined as 153 nM on IL-17AA and IL-17RA; 1210 nM in test [1]; 194 nM in test [2].

Consider `CCn1nccc1C(=O)N[C@H](C(=O)Nc1ncc([C@H](C)[C@@H](NC(=O)COC)c2ncnn2CC2CC2)cc1F)C(C1CC1)C1CC1` [Compound 46, N-((S)-1,1-dicyclopropyl-3-((5-((1R,2S)-1-(1-(cyclopropylmethyl)-1H-1,2,4-triazol-5-yl)-1-(2-methoxyacetamido)propan-2-yl)-3-fluoropyridin-2-yl)amino)-3-oxopropan-2-yl)-1-ethyl-1H-pyrazole-5-carboxamide], for which the IC50 came out at 29 nM at IL-17AA and IL-17RA; 159 nM in test [1]; 124 nM in test [2].

As to `CCn1nccc1C(=O)N[C@H](C(=O)Nc1ccc([C@H](C)[C@@H](NC(=O)COC)c2ncnn2CC2CC2)cn1)C(C1CC1)C1CC1` [Compound 48, N-((S)-1,1-dicyclopropyl-3-((5-((1R,2S)-1-(1-(cyclopropylmethyl)-1H-1,2,4-triazol-5-yl)-1-(2-methoxyacetamido)propan-2-yl)pyridin-2-yl)amino)-3-oxopropan-2-yl)-1-ethyl-1H-pyrazole-5-carboxamide], the IC50 at IL-17AA and IL-17RA turned out to be 41 nM; in test [1], 202 nM; in test [2] it was 13 nM.

`CCn1nccc1C(=O)N[C@H](C(=O)Nc1ccc([C@H](C)[C@@H](NC(=O)CO)c2ncnn2CC2CC2)cc1F)C(C1CC1)C1CC1` [Compound 49, N-((S)-1,1-dicyclopropyl-3-((4-((1R,2S)-1-(1-(cyclopropylmethyl)-1H-1,2,4-triazol-5-yl)-1-(2-hydroxyacetamido)propan-2-yl)-2-fluorophenyl)amino)-3-oxopropan-2-yl)-1-ethyl-1H-pyrazole-5-carboxamide]: the IC50 turned out to be 28 nM at IL-17AA and IL-17RA; 87 nM in test [1]; 93 nM in test [2].

Regarding `CCn1ncnc1C(=O)N[C@H](C(=O)Nc1ccc([C@H](C)[C@@H](NC(=O)COC)c2ncnn2CC2CC2)cc1F)C(C1CC1)C1CC1` [Compound 50, N-((S)-1,1-dicyclopropyl-3-((4-((1R,2S)-1-(1-(cyclopropylmethyl)-1H-1,2,4-triazol-5-yl)-1-(2-methoxyacetamido)propan-2-yl)-2-fluorophenyl)amino)-3-oxopropan-2-yl)-1-ethyl-1H-1,2,4-triazole-5-carboxamide], the IC50 turned out to be 5.6 nM on IL-17AA and IL-17RA; 26 nM in test [1]; 7.9 nM in test [2].

As for `CCn1nccc1C(=O)N[C@H](C(=O)Nc1ccc([C@H](C)[C@@H](NC(=O)CN2CCC2)c2ncnn2CC2CC2)cc1F)C(C1CC1)C1CC1` [Compound 51, N-((S)-1-((4-((1R,2S)-1-(2-(azetidin-1-yl)acetamido)-1-(1-(cyclopropylmethyl)-1H-1,2,4-triazol-5-yl)propan-2-yl)-2-fluorophenyl)amino)-3,3-dicyclopropyl-1-oxopropan-2-yl)-1-ethyl-1H-pyrazole-5-carboxamide], the IC50 at IL-17AA and IL-17RA worked out at 50 nM; in test [1], 211 nM; in test [2], 178 nM.

Turning to `CCn1nccc1C(=O)N[C@H](C(=O)Nc1ccc([C@H](C)[C@@H](NC(=O)COC)c2ncnn2CCN2CCN(C)CC2)cc1F)C(C1CC1)C1CC1` [Compound 52, N-((S)-1,1-dicyclopropyl-3-((2-fluoro-4-((1R,2S)-1-(2-methoxyacetamido)-1-(1-(2-(4-methylpiperazin-1-yl)ethyl)-1H-1,2,4-triazol-5-yl)propan-2-yl)phenyl)amino)-3-oxopropan-2-yl)-1-ethyl-1H-pyrazole-5-carboxamide], the IC50 on IL-17AA and IL-17RA was determined as 182 nM; in test [1], 2730 nM; in test [2], 2220 nM.

For `COCC(=O)N[C@@H](c1ncnn1CC1CC1)[C@@H](C)c1ccc(NC(=O)[C@@H](NC(=O)c2ccnn2C)C(C2CC2)C2CC2)c(F)c1` [Compound 53, N-((S)-1,1-dicyclopropyl-3-((4-((1R,2S)-1-(1-(cyclopropylmethyl)-1H-1,2,4-triazol-5-yl)-1-(2-methoxyacetamido)propan-2-yl)-2-fluorophenyl)amino)-3-oxopropan-2-yl)-1-methyl-1H-pyrazole-5-carboxamide], the IC50 on IL-17AA and IL-17RA worked out at 7.4 nM; in test [1], 16 nM; in test [2], 5.6 nM.

`COCC(=O)N[C@@H](c1nnnn1CC1CC1)[C@@H](C)c1ccc(NC(=O)[C@@H](NC(=O)c2nonc2C)C(C2CC2)C2CC2)c(F)c1` [Compound 54, N-((S)-1,1-dicyclopropyl-3-((4-((1R,2S)-1-(1-(cyclopropylmethyl)-1H-tetrazol-5-yl)-1-(2-methoxyacetamido)propan-2-yl)-2-fluorophenyl)amino)-3-oxopropan-2-yl)-4-methyl-1,2,5-oxadiazole-3-carboxamide]: the IC50 on IL-17AA and IL-17RA was determined as 3 nM; in test [1] it was 16 nM; in test [2], 3.6 nM.

As for `Cc1nonc1C(=O)N[C@H](C(=O)Nc1ccc([C@H](C)[C@@H](NC(=O)COC2CNC2)c2ncnn2CC2CC2)cc1F)C(C1CC1)C1CC1` [Compound 55, N-((S)-1-((4-((1R,2S)-1-(2-(azetidin-3-yloxy)acetamido)-1-(1-(cyclopropylmethyl)-1H-1,2,4-triazol-5-yl)propan-2-yl)-2-fluorophenyl)amino)-3,3-dicyclopropyl-1-oxopropan-2-yl)-4-methyl-1,2,5-oxadiazole-3-carboxamide], the IC50 was 40 nM on IL-17AA and IL-17RA; 210 nM in test [1]; 142 nM in test [2].

Turning to `Cc1nonc1C(=O)N[C@H](C(=O)Nc1ccc([C@H](C)[C@@H](NC(=O)COC2CN(C)C2)c2ncnn2CC2CC2)cc1F)C(C1CC1)C1CC1` [Compound 56, N-((S)-1,1-dicyclopropyl-3-((4-((1R,2S)-1-(1-(cyclopropylmethyl)-1H-1,2,4-triazol-5-yl)-1-(2-((1-methylazetidin-3-yl)oxy)acetamido)propan-2-yl)-2-fluorophenyl)amino)-3-oxopropan-2-yl)-4-methyl-1,2,5-oxadiazole-3-carboxamide], the IC50 is 13 nM at IL-17AA and IL-17RA; 145 nM in test [1]; 78 nM in test [2].

Consider `Cc1nonc1C(=O)N[C@H](C(=O)Nc1ccc([C@H](C)[C@@H](NC(=O)CO)c2ncnn2CC2CC2)cc1F)C(C1CC1)C1CC1` [Compound 57, N-((S)-1,1-dicyclopropyl-3-((4-((1R,2S)-1-(1-(cyclopropylmethyl)-1H-1,2,4-triazol-5-yl)-1-(2-hydroxyacetamido)propan-2-yl)-2-fluorophenyl)amino)-3-oxopropan-2-yl)-4-methyl-1,2,5-oxadiazole-3-carboxamide], for which the IC50 at IL-17AA and IL-17RA worked out at 6.8 nM; in test [1], 88 nM; in test [2], 95 nM.
